Reference: patent US9125913B2, “Bcl-2-selective apoptosis-inducing agents for the treatment of cancer and immune diseases” (AbbVie Inc., priority 2008, dated 2015)
Read-outs that look alike come from different tables or passages of the source.

Legend:
circulating platelets [1] = conditions: following injection into C57BL/6 mice; cited from earlier work
circulating platelets [2] = conditions: following injection in beagle canines; cited from earlier work
GST-Bcl-2 [3] = assay: TR-FRET binding assay, Bcl-2; conditions: TR-FRET Ki values
In short: (§1)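 Compounds serially diluted in DMSO from 50 μM (2× starting concentration, 10% DMSO), mixed with GST-tagged protein, F-Bak peptide probe and Tb-labeled antibody, incubated 3 h at room temperature.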

GST-Bcl-2 [4] = molecular target: GST-Bcl-2 (Homo sapiens (Human), UniProt P10415); assay: TR-FRET binding assay, Bcl-2; conditions: TR-FRET; GST-Bcl-2 1 nM, F-Bak probe 100 nM, Tb-anti-GST 1 nM
Sequence of GST-Bcl-2 (Homo sapiens (Human), UniProt P10415) (P10415 whole entry, looked up): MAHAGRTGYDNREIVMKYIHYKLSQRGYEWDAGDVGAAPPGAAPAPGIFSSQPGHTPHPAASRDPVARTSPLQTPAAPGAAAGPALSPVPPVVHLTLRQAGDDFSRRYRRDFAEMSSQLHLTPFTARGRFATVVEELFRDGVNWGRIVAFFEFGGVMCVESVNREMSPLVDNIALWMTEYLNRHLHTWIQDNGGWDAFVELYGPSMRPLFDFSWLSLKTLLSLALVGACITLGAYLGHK
In short: as §1

GST-Bcl-XL = GST-Bcl-XL (Homo sapiens (Human), UniProt Q07817); assay: TR-FRET binding assay, Bcl-XL; conditions: GST-Bcl-XL 1 nM, F-Bak probe 100 nM, Tb-anti-GST 1 nM
Sequence of GST-Bcl-XL (Q07817 whole entry): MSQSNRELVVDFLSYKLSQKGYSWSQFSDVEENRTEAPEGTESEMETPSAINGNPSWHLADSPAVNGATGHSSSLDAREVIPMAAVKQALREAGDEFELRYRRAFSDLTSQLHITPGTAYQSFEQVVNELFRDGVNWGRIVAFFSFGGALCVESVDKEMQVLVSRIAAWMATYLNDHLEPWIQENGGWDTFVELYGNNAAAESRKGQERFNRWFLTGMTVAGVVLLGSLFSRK
Protocol: Tb-anti-GST antibody was purchased from Invitrogen (Catalog No. PV4216).
Representative compounds were serially diluted in dimethyl sulfoxide (DMSO) starting at 50 μM (2× starting concentration; 10% DMSO) and 10 μL were transferred into a 384-well plate.
The samples were then mixed on a shaker for 1 minute and incubated for an additional 3 hours at room temperature. For each assay, the probe/antibody and protein/probe/antibody were included on each assay plate as negative and positive controls, respectively. Fluorescence was measured on the Envision (Perkin Elmer) using a 340/35 nm excitation filter and 520/525 (F-Bak peptide) and 495/510 nm (Tb-labeled anti-Histidine antibody) emission filters.
The inhibition constant (Ki) is the dissociation constant of an enzyme-inhibitor complex or a protein/small molecule complex, wherein the small molecule is inhibiting binding of one protein to another protein or peptide. […] Inhibition constants were determined using Wang's equation (Wang Z-X., An Exact Mathematical Expression For Describing Competitive Binding Of Two Different Ligands To A Protein Molecule. FEBS Lett. 1995, 360:111-4).

FL5.12/Bcl-2 cells = assay: FL5.12/Bcl-2 cell viability assay; type: cell-based, murine; conditions: for Selectivity Ratio (Platelet EC50/FL5.12/Bcl-2 EC50): ratio of canine platelet EC50 to FL5.12/Bcl-2 EC50
In short: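 Viability measured with CellTiter-Glo after 24 h compound treatment at various concentrations, following 48 h IL-3 withdrawal (no WEHI-3B medium). Cells: prolymphocytic mouse FL5.12 line stably transfected to overexpress Bcl-2, cultured at 37 °C, 5% CO2.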

[5] = test system: isolated canine platelets; assay: Platelet cell viability assay; type: cell-based; conditions: Canis lupus familiaris, 5 h; isolated canine platelets (platelet-rich plasma), five hours at 37° C., Cell Titer Glo
Protocol: After the incubation, platelets were equilibrated to room temperature for 20 minutes and then an equal volume of Cell Titer Glo reagent (Promega Corporation) was added. Samples were mixed for two minutes and then allowed to equilibrate for an additional 10 minutes at room temperature. The luminescence generated from the samples was quantitated using an LJL Analyst plate reader.
The effect of compounds on platelet survival can be directly evaluated ex vivo by examining the viability of isolated canine platelets in the presence of various concentrations of compound.

| Compound | Binding selectivity ratio (Bcl-XL Ki/Bcl-2 Ki) (GST-Bcl-2 [3]) | Selectivity Ratio (Platelet EC50/FL5.12/Bcl-2 EC50) (FL5.12/Bcl-2 cells) | further results |
| --- | --- | --- | --- |
| CN(C)CC[C@H](CSc1ccccc1)Nc1ccc(S(=O)(=O)NC(=O)c2ccc(N3CCN(Cc4ccccc4-c4ccc(Cl)cc4)CC3)cc2)cc1[N+](=O)[O-] [ABT-737, 4-(4-((4′-chloro-1,1′-biphenyl-2-yl)methyl)piperazin-1-yl)-N-((4-(((1R)-3-(dimethylamino)-1-((phenylthio)methyl)propyl)amino)-3-nitrophenyl)sulfonyl)benzamide] | – | – | decrease in circulating platelets (circulating platelets [1]): rapid, concentration dependant decrease in circulating platelets; decrease in circulating platelets (circulating platelets [2]): rapid, concentration dependant decrease in circulating platelets |
| CN1CCC(Nc2ccc(S(=O)(=O)NC(=O)c3ccc(N4CCN(CC5=C(c6ccc(Cl)cc6)CC(C)(C)CC5)CC4)cc3Oc3ccc4[nH]ccc4c3)cc2S(=O)(=O)C(F)(F)F)CC1 [Example 76, 4-(4-{[2-(4-chlorophenyl)-4,4-dimethylcyclohex-1-en-1-yl]methyl}piperazin-1-yl)-2-(1H-indol-5-yloxy)-N-({4-[(1-methylpiperidin-4-yl)amino]-3-[(trifluoromethyl)sulfonyl]phenyl}sulfonyl)benzamide] | 64.5 | 221 | Ki (GST-Bcl-2 [4]): 0.05 nM; Ki (GST-Bcl-XL): 10 µM |
| CN1CCC(Nc2ccc(S(=O)(=O)NC(=O)c3ccc(N4CCN(CC5=C(c6ccc(Cl)cc6)CCC5)CC4)cc3Oc3cccc4[nH]ccc34)cc2[N+](=O)[O-])CC1 [Example 148, 4-(4-{[2-(4-chlorophenyl)cyclopent-1-en-1-yl]methyl}piperazin-1-yl)-2-(1H-indol-4-yloxy)-N-({4-[(1-methylpiperidin-4-yl)amino]-3-nitrophenyl}sulfonyl)benzamide] | >228.4 | 278 | EC50 [5]: 120 µM; EC50 (FL5.12/Bcl-2 cells; Mus musculus, FL5.12/Bcl-2 cells, IL-3 withdrawal, 24 hrs treatment, CellTitre Glo): 0.07 µM |
| CN1CCC(Nc2ccc(S(=O)(=O)NC(=O)c3ccc(N4CCN(CC5=C(c6ccc(Cl)cc6)CC(C)(C)OC5)CC4)cc3Oc3ccc4[nH]ccc4c3)cc2[N+](=O)[O-])CC1 [Example 150, 4-(4-{[4-(4-chlorophenyl)-6,6-dimethyl-5,6-dihydro-2H-pyran-3-yl]methyl}piperazin-1-yl)-2-(1H-indol-5-yloxy)-N-({4-[(1-methylpiperidin-4-yl)amino]-3-nitrophenyl}sulfonyl)benzamide] | 667 | 509 | – |
| CN1CCC(Nc2ccc(S(=O)(=O)NC(=O)c3ccc(N4CCN(CC5=C(c6ccc(Cl)cc6)CCCCC5)CC4)cc3Oc3ccc4[nH]ccc4c3)cc2[N+](=O)[O-])CC1 [Example 151, 4-(4-{[2-(4-chlorophenyl)cyclohept-1-en-1-yl]methyl}piperazin-1-yl)-2-(1H-indol-5-yloxy)-N-({4-[(1-methylpiperidin-4-yl)amino]-3-nitrophenyl}sulfonyl)benzamide] | >4074.1 | 642 | – |
| CN1CCC(Nc2ccc(S(=O)(=O)NC(=O)c3ccc(N4CCN(CC5=C(c6ccc(Cl)cc6)CC(C)(C)CC5)CC4)cc3Oc3ccccc3)cc2[N+](=O)[O-])CC1 [Example 152, 4-(4-{[2-(4-chlorophenyl)-4,4-dimethylcyclohex-1-en-1-yl]methyl}piperazin-1-yl)-N-({4-[(1-methylpiperidin-4-yl)amino]-3-nitrophenyl}sulfonyl)-2-phenoxybenzamide] | 15.8 | 283 | – |
| CN(C)CCCNc1ccc(S(=O)(=O)NC(=O)c2ccc(N3CCN(Cc4ccccc4-c4ccc(Cl)cc4)CC3)cc2Oc2ccccc2)cc1[N+](=O)[O-] [Example 154, 4-{4-[(4′-chloro-1,1′-biphenyl-2-yl)methyl]piperazin-1-yl}-N-[(4-{[3-(dimethylamino)propyl]amino}-3-nitrophenyl)sulfonyl]-2-phenoxybenzamide] | 40.4 | 343 | – |
| O=C(NS(=O)(=O)c1ccc(NCCCN2CCOCC2)c([N+](=O)[O-])c1)c1ccc(N2CCN(Cc3ccccc3-c3ccc(Cl)cc3)CC2)cc1Oc1ccccc1 [Example 155, 4-{4-[(4′-chloro-1,1′-biphenyl-2-yl)methyl]piperazin-1-yl}-N-({4-[(3-morpholin-4-ylpropyl)amino]-3-nitrophenyl}sulfonyl)-2-phenoxybenzamide] | 77.8 | >119 | – |
| CN(C)CCCNc1ccc(S(=O)(=O)NC(=O)c2ccc(N3CCN(Cc4ccccc4-c4ccc(Cl)cc4)CC3)cc2Oc2ccc3ccccc3c2)cc1[N+](=O)[O-] [Example 166, 4-{4-[(4′-chloro-1,1′-biphenyl-2-yl)methyl]piperazin-1-yl}-N-[(4-{[3-(dimethylamino)propyl]amino}-3-nitrophenyl)sulfonyl]-2-(2-naphthyloxy)benzamide] | 7.1 | >327 | – |
| CN(C)CCCNc1ccc(S(=O)(=O)NC(=O)c2ccc(N3CCN(CC4=C(c5ccc(Cl)cc5)CC(C)(C)CC4)CC3)cc2Oc2ccc3[nH]ccc3c2)cc1S(=O)(=O)C(F)(F)F [Example 170, 4-(4-{[2-(4-chlorophenyl)-4,4-dimethylcyclohex-1-en-1-yl]methyl}piperazin-1-yl)-N-({4-{[3-(dimethylamino)propyl]amino}-3-[(trifluoromethyl)sulfonyl]phenyl}sulfonyl)-2-(1H-indol-5-yloxy)benzamide] | 30.2 | 507 | – |
| CN(C)CCCNc1ccc(S(=O)(=O)NC(=O)c2ccc(N3CCN(CC4=C(c5ccc(Cl)cc5)CC(C)(C)CC4)CC3)cc2Oc2ccc3[nH]ccc3c2)cc1C(F)(F)F [Example 171, 4-(4-{[2-(4-chlorophenyl)-4,4-dimethylcyclohex-1-en-1-yl]methyl}piperazin-1-yl)-N-{[4-{[3-(dimethylamino)propyl]amino}-3-(trifluoromethyl)phenyl]sulfonyl}-2-(1H-indol-5-yloxy)benzamide] | 17.7 | >181 | – |
| CN(C)CCCNc1ccc(S(=O)(=O)NC(=O)c2ccc(N3CCN(CC4=C(c5ccc(Cl)cc5)CC(C)(C)CC4)CC3)cc2Oc2ccc3[nH]ccc3c2)cc1C#N [Example 172, 4-(4-{[2-(4-chlorophenyl)-4,4-dimethylcyclohex-1-en-1-yl]methyl}piperazin-1-yl)-N-[(3-cyano-4-{[3-(dimethylamino)propyl]amino}phenyl)sulfonyl]-2-(1H-indol-5-yloxy)benzamide] | 32.1 | >257 | – |
| CC1(C)CCC(CN2CCN(c3ccc(C(=O)NS(=O)(=O)c4ccc(NC5CCN(C6CCOCC6)CC5)c([N+](=O)[O-])c4)c(Oc4ccc5[nH]ccc5c4)c3)CC2)=C(c2ccc(Cl)cc2)C1 [Example 173, 4-(4-{[2-(4-chlorophenyl)-4,4-dimethylcyclohex-1-en-1-yl]methyl}piperazin-1-yl)-2-(1H-indol-5-yloxy)-N-({3-nitro-4-[(1-tetrahydro-2H-pyran-4-ylpiperidin-4-yl)amino]phenyl}sulfonyl)benzamide] | 204.6 | >4587 | – |
| CN1CCN(Nc2ccc(S(=O)(=O)NC(=O)c3ccc(N4CCN(CC5=C(c6ccc(Cl)cc6)CC(C)(C)CC5)CC4)cc3Oc3ccc4[nH]ccc4c3)cc2[N+](=O)[O-])CC1 [Example 174, 4-(4-{[2-(4-chlorophenyl)-4,4-dimethylcyclohex-1-en-1-yl]methyl}piperazin-1-yl)-2-(1H-indol-5-yloxy)-N-({4-[(4-methylpiperazin-1-yl)amino]-3-nitrophenyl}sulfonyl)benzamide] | 591.3 | 1857 | – |
